Measured values: US20260042753A1 (Merck Patent GmbH, priority 2019, published 2026)

Key:
[1] = target: mutant cKIT (560-576 and V654A) in GIST430/654 cell line (Homo sapiens (Human), UniProt P10721, DEL560-576/V654A); experiment: Cellular testing of cKIT mutant inhibitors: phospho-Y307-cKIT Luminex assay in GIST430/654 cells; type: cell-based; conditions: Table 1; cKIT autophosphorylation, compounds 45 min; read-out: GIST 430/654 IC50
Procedure, shortened: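 GIST430/654 cells carrying constitutively active cKIT (Δ560-576/V654A) were grown with 100 nM imatinib, then treated with serially diluted compound for 45 min. Lysates were captured on anti-total-cKIT Luminex beads overnight at 4 °C and probed for phospho-Y307-cKIT. IC50 was fitted from percent of 0.3% DMSO control.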

[2] = target: c-Kit(V654A) (Homo sapiens, UniProt P10721, V654A); experiment: c-Kit(V654A) assay; type: biochemical; conditions: Table 1; 200 μM ATP
Procedure, shortened: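 Radiometric filter-binding read-out: after 3% phosphoric acid stop, peptide-incorporated 33P on filtermat scintillation-counted. Enzyme: human c-Kit V654A, residues 544–end, N-terminal GST fusion.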

Sequence of mutant cKIT (560-576 and V654A) in GIST430/654 cell line (P10721 other isoform, or with tags, fused parts or gaps V654A/del 1-25/del 560-576 limits assumed): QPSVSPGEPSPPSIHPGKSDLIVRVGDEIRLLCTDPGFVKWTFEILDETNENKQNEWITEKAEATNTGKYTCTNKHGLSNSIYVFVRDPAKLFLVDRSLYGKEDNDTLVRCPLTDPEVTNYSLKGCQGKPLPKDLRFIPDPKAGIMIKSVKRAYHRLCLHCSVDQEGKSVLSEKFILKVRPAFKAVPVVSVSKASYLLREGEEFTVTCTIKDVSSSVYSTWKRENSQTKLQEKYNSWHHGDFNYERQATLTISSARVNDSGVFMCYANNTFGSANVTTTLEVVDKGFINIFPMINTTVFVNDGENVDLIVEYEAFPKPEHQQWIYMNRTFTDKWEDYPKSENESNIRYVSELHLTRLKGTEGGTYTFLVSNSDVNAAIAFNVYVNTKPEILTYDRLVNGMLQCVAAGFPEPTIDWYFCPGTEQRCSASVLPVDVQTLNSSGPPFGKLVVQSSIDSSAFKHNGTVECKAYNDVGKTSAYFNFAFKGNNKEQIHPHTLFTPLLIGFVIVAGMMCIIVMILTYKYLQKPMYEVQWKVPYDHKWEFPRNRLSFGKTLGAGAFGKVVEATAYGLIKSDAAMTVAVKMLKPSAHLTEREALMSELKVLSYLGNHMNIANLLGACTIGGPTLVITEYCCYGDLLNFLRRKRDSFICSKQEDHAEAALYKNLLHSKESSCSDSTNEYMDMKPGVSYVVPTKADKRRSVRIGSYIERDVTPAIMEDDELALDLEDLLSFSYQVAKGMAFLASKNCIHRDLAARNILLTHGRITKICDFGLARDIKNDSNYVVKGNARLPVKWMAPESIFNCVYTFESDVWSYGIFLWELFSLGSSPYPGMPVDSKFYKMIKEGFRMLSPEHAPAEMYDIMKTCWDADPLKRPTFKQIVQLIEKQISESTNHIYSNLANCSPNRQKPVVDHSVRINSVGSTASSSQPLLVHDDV

Compound | IC50 [1] [nM] | IC50 [2] [nM]
COCCOc1cc2[nH]nc(-c3cc(-c4ccc(N=S5(=O)CCNCC5)cc4)no3)c2cc1F [A129, 1-[(4-{5-[5-fluoro-6-(2-methoxyethoxy)-1H-indazol-3-yl]-1,2-oxazol-3-yl}phenyl)imino]-1lambda6-thiomorpholin-1-one] | 80 | 1.7
COCCOc1cc2[nH]nc(-c3cc(-c4ccc(N5CCS(=O)(=O)CC5)nc4)no3)c2cc1F [A131, 4-(5-{5-[5-fluoro-6-(2-methoxyethoxy)-1H-indazol-3-yl]-1,2-oxazol-3-yl}pyridin-2-yl)-1lambda6-thiomorpholine-1,1-dione] | 65 | 3
COCCOc1cc2[nH]nc(-c3cc(-c4ccc(OCCN5CCS(=O)(=O)CC5)cc4)no3)c2cc1F [A132, 4-[2-(4-{5-[5-fluoro-6-(2-methoxyethoxy)-1H-indazol-3-yl]-1,2-oxazol-3-yl}phenoxy)ethyl]-1lambda6-thiomorpholine-1,1-dione] | 93 | 1.6
COCCOc1cc2[nH]nc(-c3cc(-c4cccc(C(=O)N(C)C)c4)no3)c2cc1F [A135, 3-{5-[5-fluoro-6-(2-methoxy-ethoxy)-1H-indazol-3-yl]-isoxazol-3-yl}-N,N-dimethyl-benzamide] | 340 | 4.9
COCCOc1cc2[nH]nc(-c3cc(-c4cnn(C)c4)no3)c2cc1F [A137, 5-fluoro-6-(2-methoxy-ethoxy)-3-[3-(1-methyl-1H-pyrazol-4-yl)-isoxazol-5-yl]-1H-indazole] | 180 | 7.6
COCCOc1cc2[nH]nc(-c3cc(-c4ccc(N5CCOCC5=O)cc4)no3)c2cc1F [A139, 4-(4-{5-[5-fluoro-6-(2-methoxyethoxy)-1H-indazol-3-yl]-1,2-oxazol-3-yl}phenyl)morpholin-3-one] | 68 | 1.2
COCCOc1cc2[nH]nc(-c3cc(-c4ccc(-n5ncccc5=O)cc4)no3)c2cc1F [A142, 2-(4-{5-[5-fluoro-6-(2-methoxyethoxy)-1H-indazol-3-yl]-1,2-oxazol-3-yl}phenyl)-2,3-dihydropyridazin-3-one] | 75 | 6
COCCOc1cc2[nH]nc(-c3cc(-c4ccc(S(=O)(=O)N(C)C)cc4)no3)c2cc1F [A144, 4-{5-[5-fluoro-6-(2-methoxyethoxy)-1H-indazol-3-yl]-1,2-oxazol-3-yl}-N,N-dimethylbenzene-1-sulfonamide] | 1900 | 3.2
COCCOc1cc2[nH]nc(-c3cc(-c4ccc(C(=O)N5CC[C@H]5C(C)(C)O)cc4)on3)c2cc1F [A148, (4-{3-[5-fluoro-6-(2-methoxy-ethoxy)-1H-indazol-3-yl]-isoxazol-5-yl}-phenyl)-[(S)-2-(1-hydroxy-1-methyl-ethyl)-azetidin-1-yl]-methanone] | 70 | 1.8
COCCOc1cc2[nH]nc(-c3cc(-c4ccc(C(=O)N5CC(c6ccccn6)C5)cc4)no3)c2cc1F [A149, 5-fluoro-6-(2-methoxyethoxy)-3-(3-{4-[3-(pyridin-2-yl)azetidine-1-carbonyl]phenyl}-1,2-oxazol-5-yl)-1H-indazole] | 46 | 0.69

Further molecules by falling IC50 [1], results first:

IC50 [1] [nM] | IC50 [2] [nM] | Compound
1100 | 4.8 | COCCOc1cc2[nH]nc(-c3cc(-c4ccc(N5CC(N6CCOCC6)C5)nc4)no3)c2cc1F [A145, 5-fluoro-6-(2-methoxyethoxy)-3-(3-{6-[3-(morpholin-4-yl)azetidin-1-yl]pyridin-3-yl}-1,2-oxazol-5-yl)-1H-indazole]
860 | 18 | COCCOc1cc2[nH]nc(-c3cc(-c4ccc(Oc5ccccn5)cc4)no3)c2cc1F [A143, 5-fluoro-6-(2-methoxyethoxy)-3-{3-[4-(pyridin-2-yloxy)phenyl]-1,2-oxazol-5-yl}-1H-indazole]
240 | 0.71 | COCCOc1cc2[nH]nc(-c3cc(-c4ccc(C(=O)N5CC6(C5)CS(=O)(=O)C6)cc4)no3)c2cc1F [A151, 6-(4-{5-[5-fluoro-6-(2-methoxyethoxy)-1H-indazol-3-yl]-1,2-oxazol-3-yl}benzoyl)-2lambda6-thia-6-azaspiro[3.3]heptane-2,2-dione]
220 | 7.7 | COCCOc1cc2[nH]nc(-c3cc(-c4ccc(N5CCOCC5)nc4)no3)c2cc1F [A141, 5-fluoro-6-(2-methoxyethoxy)-3-{3-[6-(morpholin-4-yl)pyridin-3-yl]-1,2-oxazol-5-yl}-1H-indazole]
160 | 6.4 | COCCOc1cc2[nH]nc(-c3cc(-c4ccc(N5CCCS5(=O)=O)cc4)no3)c2cc1F [A138, 2-(4-{5-[5-fluoro-6-(2-methoxyethoxy)-1H-indazol-3-yl]-1,2-oxazol-3-yl}phenyl)-1lambda6,2-thiazolidine-1,1-dione]
150 | 1.5 | COCCOc1cc2[nH]nc(-c3cc(-c4ccc(OCCN5CCNCC5)cc4)no3)c2cc1F [A134, 5-fluoro-6-(2-methoxyethoxy)-3-(3-{4-[2-(piperazin-1-yl)ethoxy]phenyl}-1,2-oxazol-5-yl)-1H-indazole]
140 | 5.9 | COCCOc1cc2[nH]nc(-c3cc(-c4ccc(-n5nc(C)ccc5=O)cc4)no3)c2cc1F [A136, 2-(4-{5-[5-fluoro-6-(2-methoxy-ethoxy)-1H-indazol-3-yl]-isoxazol-3-yl}-phenyl)-6-methyl-2H-pyridazin-3-one]
130 | 1 | COCCOc1cc2[nH]nc(-c3cc(-c4ccc(OCCN5CCN(C)CC5)cc4)no3)c2cc1F [A133, 5-fluoro-6-(2-methoxyethoxy)-3-(3-{4-[2-(4-methylpiperazin-1-yl)ethoxy]phenyl}-1,2-oxazol-5-yl)-1H-indazole]
110 | 1.7 | COCCOc1cc2[nH]nc(-c3cc(-c4ccc(C(=O)N(C)CCS(C)(=O)=O)cc4)no3)c2cc1F [A150, 4-{5-[5-fluoro-6-(2-methoxyethoxy)-1H-indazol-3-yl]-1,2-oxazol-3-yl}-N-(2-methanesulfonylethyl)-N-methylbenzamide]
90 | 2.9 | COCCOc1cc2[nH]nc(-c3cc(-c4ccc(C(=O)N5CC(N6CCOCC6)C5)cc4)on3)c2cc1F [A146, (4-{3-[5-fluoro-6-(2-methoxy-ethoxy)-1H-indazol-3-yl]-isoxazol-5-yl}-phenyl)-(3-morpholin-4-yl-azetidin-1-yl)-methanone]
67 | 2.2 | COCCOc1cc2[nH]nc(-c3cc(-c4ccc(C(=O)N5CC[C@@H]5C(C)(C)O)cc4)on3)c2cc1F [A147, (4-{3-[5-fluoro-6-(2-methoxy-ethoxy)-1H-indazol-3-yl]-isoxazol-5-yl}-phenyl)-[(R)-2-(1-hydroxy-1-methyl-ethyl)-azetidin-1-yl]-methanone]
64 | 0.88 | COCCOc1cc2[nH]nc(-c3cc(-c4ccc(C(=O)N5CC[C@H]5CS(C)(=O)=O)cc4)no3)c2cc1F [A152, 5-fluoro-3-(3-{4-[(2S)-2-(methanesulfonylmethyl)azetidine-1-carbonyl]phenyl}-1,2-oxazol-5-yl)-6-(2-methoxyethoxy)-1H-indazole]
46 | 1.6 | COCCOc1cc2[nH]nc(-c3cc(-c4ccc(N5CC[S+]([O-])CC5)nc4)no3)c2cc1F [A140, 4-(5-{5-[5-fluoro-6-(2-methoxyethoxy)-1H-indazol-3-yl]-1,2-oxazol-3-yl}pyridin-2-yl)-1lambda4-thiomorpholin-1-one]
